The subject of one experiment is MV4-11. As to the kind of experiment: Antiproliferative activity against human MV4-11 cells assessed as inhibition of cell growth incubated for 72 hrs by CCK-8 assay. Conditions: MV4-11, 72 h. The class given is functional, cell-based. A general note: Formazan colour is commonly taken as a measure of viable cells.
In experiment [1] the target is Cyclin-dependent kinase 9 (Homo sapiens, UniProt P50750).
Description: Inhibition of CDK9 (unknown origin) using ULight 4EBP1 peptide as substrate incubated for 2 hrs by FRET assay
Experiment [2] addresses Cyclin-dependent kinase 1 (Homo sapiens, UniProt P06493). The experiment is described as follows: Inhibition of CDK1 (unknown origin) using ULight 4EBP1 peptide as substrate incubated for 2 hrs by FRET assay.
For experiment [3], the target named is Cyclin-dependent kinase 5 (Homo sapiens, UniProt Q00535). The experiment is described as follows: Inhibition of CDK5 (unknown origin) using ULight 4EBP1 peptide as substrate incubated for 2 hrs by FRET assay.
Experiment [4] concerns the target Cyclin-dependent kinase 3 (Homo sapiens, UniProt Q00526). The experiment is described as follows: Inhibition of CDK3 (unknown origin) using ULight 4EBP1 peptide as substrate incubated for 2 hrs by FRET assay.
In experiment [5] the target is Cyclin-dependent kinase 2 (Homo sapiens, UniProt P24941). As to the kind of experiment: Inhibition of CDK2 (unknown origin) using ULight 4EBP1 peptide as substrate incubated for 2 hrs by FRET assay.
The target in experiment [6] is Cyclin-dependent kinase 4 (Homo sapiens, UniProt P11802). As to the kind of experiment: Inhibition of CDK4 (unknown origin) using ULight 4EBP1 peptide as substrate incubated for 2 hrs by FRET assay.
The target in experiment [7] is Cyclin-dependent kinase 6 (Homo sapiens, UniProt Q00534). As to the kind of experiment: Inhibition of CDK6 (unknown origin) using ULight 4EBP1 peptide as substrate incubated for 2 hrs by FRET assay.
The target of the next experiment is T1, Aurora kinase A (Homo sapiens, UniProt O14965).
T1 sequence (O14965 whole entry): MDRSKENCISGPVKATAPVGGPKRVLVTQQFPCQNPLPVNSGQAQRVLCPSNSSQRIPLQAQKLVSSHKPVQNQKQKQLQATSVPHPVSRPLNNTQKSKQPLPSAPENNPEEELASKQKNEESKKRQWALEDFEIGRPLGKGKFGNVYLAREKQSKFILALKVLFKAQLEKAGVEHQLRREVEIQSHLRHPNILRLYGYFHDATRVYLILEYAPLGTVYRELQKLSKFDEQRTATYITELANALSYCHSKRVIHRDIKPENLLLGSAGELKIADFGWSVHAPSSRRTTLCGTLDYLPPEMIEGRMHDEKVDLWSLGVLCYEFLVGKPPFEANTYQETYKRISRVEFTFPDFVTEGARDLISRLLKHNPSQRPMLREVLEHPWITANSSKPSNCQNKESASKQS
As to the kind of experiment: Inhibition of Aurora A (unknown origin).

The target of the next experiment is T2, Ephrin type-A receptor 1 (Homo sapiens, UniProt P21709).
T2 sequence (P21709 whole entry): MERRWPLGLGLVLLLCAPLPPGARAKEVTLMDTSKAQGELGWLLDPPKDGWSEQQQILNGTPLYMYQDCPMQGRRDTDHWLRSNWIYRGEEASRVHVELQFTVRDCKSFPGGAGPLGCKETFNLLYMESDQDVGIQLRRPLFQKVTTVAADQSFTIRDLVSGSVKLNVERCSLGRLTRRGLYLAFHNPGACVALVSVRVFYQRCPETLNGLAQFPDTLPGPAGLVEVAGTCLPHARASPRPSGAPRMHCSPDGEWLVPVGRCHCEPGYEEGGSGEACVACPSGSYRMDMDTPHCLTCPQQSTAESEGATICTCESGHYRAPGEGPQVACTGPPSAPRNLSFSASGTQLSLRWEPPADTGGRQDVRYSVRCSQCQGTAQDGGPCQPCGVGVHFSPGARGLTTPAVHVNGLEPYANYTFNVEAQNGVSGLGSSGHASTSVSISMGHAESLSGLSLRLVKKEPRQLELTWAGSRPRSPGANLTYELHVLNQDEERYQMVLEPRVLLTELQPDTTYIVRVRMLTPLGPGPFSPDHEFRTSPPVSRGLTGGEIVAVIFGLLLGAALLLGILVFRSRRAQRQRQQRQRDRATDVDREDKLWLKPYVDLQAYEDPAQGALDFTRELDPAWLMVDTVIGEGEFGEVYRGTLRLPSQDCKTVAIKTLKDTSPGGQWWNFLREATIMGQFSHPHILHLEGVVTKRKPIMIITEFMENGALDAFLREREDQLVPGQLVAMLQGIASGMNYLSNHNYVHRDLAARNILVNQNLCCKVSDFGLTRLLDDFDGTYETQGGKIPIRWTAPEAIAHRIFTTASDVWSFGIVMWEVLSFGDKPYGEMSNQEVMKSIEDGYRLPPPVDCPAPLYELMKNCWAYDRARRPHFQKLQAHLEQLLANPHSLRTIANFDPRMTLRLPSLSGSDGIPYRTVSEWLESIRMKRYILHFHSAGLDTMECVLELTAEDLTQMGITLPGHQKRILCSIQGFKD
The experiment is described as follows: Inhibition of human EPHA1 incubated for 1 hr by HTRF assay.

Experiment [8] has as its target Insulin-like growth factor 1 receptor (Homo sapiens, UniProt P08069). The experiment is described as follows: Inhibition of human IGF1R incubated for 1 hr by HTRF assay. For orientation: In TR-FRET formats the signal depends on donor and acceptor labels being close together.
Experiment [9] addresses T3, Cytoplasmic tyrosine-protein kinase BMX (Homo sapiens, UniProt P51813).
T3 sequence (P51813 whole entry): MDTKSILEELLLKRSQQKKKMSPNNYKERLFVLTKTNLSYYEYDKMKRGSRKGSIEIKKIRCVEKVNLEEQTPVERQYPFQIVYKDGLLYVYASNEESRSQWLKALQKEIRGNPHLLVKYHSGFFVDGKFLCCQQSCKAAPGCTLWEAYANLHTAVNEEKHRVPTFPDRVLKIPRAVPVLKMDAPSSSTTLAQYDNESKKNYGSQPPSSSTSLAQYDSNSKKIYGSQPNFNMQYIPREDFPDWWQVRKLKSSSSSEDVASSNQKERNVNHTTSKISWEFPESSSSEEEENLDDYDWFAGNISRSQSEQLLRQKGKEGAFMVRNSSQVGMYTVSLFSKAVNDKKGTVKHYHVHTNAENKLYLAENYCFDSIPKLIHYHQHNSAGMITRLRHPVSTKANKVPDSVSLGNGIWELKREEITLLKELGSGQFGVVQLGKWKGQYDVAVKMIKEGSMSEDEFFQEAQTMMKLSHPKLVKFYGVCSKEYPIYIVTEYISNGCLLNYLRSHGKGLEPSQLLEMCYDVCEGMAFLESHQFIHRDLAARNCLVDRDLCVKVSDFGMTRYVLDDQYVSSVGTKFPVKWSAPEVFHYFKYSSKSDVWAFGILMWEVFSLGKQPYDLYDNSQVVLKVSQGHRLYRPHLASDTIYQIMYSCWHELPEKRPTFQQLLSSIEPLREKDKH
As to the kind of experiment: Inhibition of human BMX incubated for 1 hr by HTRF assay.

Experiment [10] addresses T4, Tyrosine-protein kinase Tec (Homo sapiens, UniProt P42680).
T4 sequence (P42680 whole entry): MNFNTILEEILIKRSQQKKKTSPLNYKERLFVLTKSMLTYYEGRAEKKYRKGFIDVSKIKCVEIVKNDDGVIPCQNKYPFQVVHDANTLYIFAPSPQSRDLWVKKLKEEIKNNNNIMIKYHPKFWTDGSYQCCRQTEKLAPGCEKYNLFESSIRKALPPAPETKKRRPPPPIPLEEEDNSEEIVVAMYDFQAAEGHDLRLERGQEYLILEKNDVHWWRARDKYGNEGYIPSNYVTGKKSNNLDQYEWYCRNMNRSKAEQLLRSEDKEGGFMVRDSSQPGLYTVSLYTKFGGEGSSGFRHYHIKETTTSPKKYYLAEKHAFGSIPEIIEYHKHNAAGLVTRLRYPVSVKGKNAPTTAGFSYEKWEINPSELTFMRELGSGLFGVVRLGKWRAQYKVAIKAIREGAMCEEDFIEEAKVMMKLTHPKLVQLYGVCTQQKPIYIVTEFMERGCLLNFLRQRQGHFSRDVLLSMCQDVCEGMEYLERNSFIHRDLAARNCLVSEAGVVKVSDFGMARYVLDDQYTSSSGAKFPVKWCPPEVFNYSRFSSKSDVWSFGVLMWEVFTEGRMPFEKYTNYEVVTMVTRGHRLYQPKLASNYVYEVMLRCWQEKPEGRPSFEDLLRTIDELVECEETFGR
The experiment is described as follows: Inhibition of human TEC incubated for 1 hr by HTRF assay.

Experiment [11] addresses Tyrosine-protein kinase BTK (Homo sapiens, UniProt Q06187). The experiment is described as follows: Inhibition of human recombinant BTK incubated for 1 hr by HTRF assay.
Experiment [12] addresses Tyrosine-protein kinase Blk (Homo sapiens, UniProt P51451). The experiment is described as follows: Inhibition of human BLK incubated for 1 hr by HTRF assay.
The target in experiment [13] is Epidermal growth factor receptor (Homo sapiens, UniProt P00533). The experiment is described as follows: Inhibition of human EGFR incubated for 1 hr by HTRF assay.
For experiment [14], the target named is Tyrosine-protein kinase HCK (Homo sapiens, UniProt P08631). The experiment is described as follows: Inhibition of human HCK incubated for 1 hr by HTRF assay.
Experiment [15] has as its target Tyrosine-protein kinase Lyn (Homo sapiens, UniProt P07948). The experiment is described as follows: Inhibition of human LYN incubated for 1 hr by HTRF assay.
For experiment [16], the target named is Hepatocyte growth factor receptor (Homo sapiens, UniProt P08581). As to the kind of experiment: Inhibition of human MET incubated for 1 hr by HTRF assay.
For experiment [17], the target named is Cyclin-dependent kinase 7 (Homo sapiens, UniProt P50613). The experiment is described as follows: Inhibition of CDK7 (unknown origin) using ULight 4EBP1 peptide as substrate incubated for 2 hrs by FRET assay.

The IC50 is the concentration that inhibits the measured activity by half. Regarding `CN(C)C/C=C/C(=O)Nc1ccc(C(=O)Nc2cccc(Nc3ncc(Cl)c(-c4c[nH]c5ccccc45)n3)c2)cc1`, the IC50 in the experiment with MV4-11 is 30.7 nM.
Consider `COC[C@@H](C)N[C@H]1CC[C@H](Nc2cc(-c3cccc(NCC4(C#N)CCOCC4)n3)c(Cl)cn2)CC1`, for which half-maximal inhibition in experiment [1] (IC50) required 3.57 nM.
Regarding `CC(=O)N[C@H]1CC[C@H](c2ncc(Cl)c(Nc3ccccc3S(=O)(=O)C(C)C)n2)CC1`, the IC50 in experiment [2] is over 10000 nM; in experiment [3], 3680 nM; in experiment [4], 370 nM; in experiment [5], 735 nM; in experiment [6] it was 645 nM; in [7] it was 1350 nM. Moreover, the IC50 is 1320 nM on Aurora kinase A; 2480 nM at Ephrin type-A receptor 1; 2890 nM in [8]; over 10000 nM in experiment [9]; over 10000 nM in [10]; over 10000 nM in [11]. Further, the IC50 in experiment [12], in [13], in experiment [14], in [15] and in experiment [16] was over 10000 nM throughout.
For the molecule `Cn1ncc(-c2nc(N[C@H]3CC[C@H](N)CC3)ncc2Cl)c1CC1CC1` [BTX-A51], the IC50 in [17] stood at 272 nM; in the experiment with MV4-11, 158 nM; in experiment [1], 18.6 nM.

The values are drawn from ChEMBL document CHEMBL5579874, “Design, Synthesis, and Biological Evaluation of 2,4-Diaminopyrimidine Derivatives as Potent CDK7 Inhibitors” (ACS Med Chem Lett, 2024).
